Source: patent US12581252B2, “Substituted pyrrolo[3,4-b]pyridines as PI3K-α inhibitors” (Relay Therapeutics, Inc., priority 2020, dated 2026)

Target: H1047R PIK3CA enzyme (Homo sapiens, UniProt P42336, H1047R)
Assay: ADP-Glo Biochemical PIK3CA Kinase Assay
Description: Compounds to be assayed were plated in 16 doses of 1:2 serial dilutions (20 nL volume each well) on a 1536-well plate, and the plate warmed to room temperature. […] To the well was added 1 μL of 200 μM ATP and 20 μM of diC8-PIP2 in Substrate Assay Buffer (50 mM HEPES pH7.4, 50 mM NaCl, 5 mM DTT and 0.03% CHAPS) to start the reaction, and the plate was shaken for 10 seconds, then spun briefly at 1500 rpm, and then incubated for 60 minutes at room temperature. The reaction was stopped by adding 2 μL of ADP-Glo reagent (Promega), and spinning briefly at 1500 rpm, and then incubating for 40 minutes. ADP-Glo Detection reagent (Promega) was added and the plate spun briefly at 1500 rpm, then incubated for 30 minutes.

H1047R PIK3CA enzyme, sequence (P42336 whole entry H1047R): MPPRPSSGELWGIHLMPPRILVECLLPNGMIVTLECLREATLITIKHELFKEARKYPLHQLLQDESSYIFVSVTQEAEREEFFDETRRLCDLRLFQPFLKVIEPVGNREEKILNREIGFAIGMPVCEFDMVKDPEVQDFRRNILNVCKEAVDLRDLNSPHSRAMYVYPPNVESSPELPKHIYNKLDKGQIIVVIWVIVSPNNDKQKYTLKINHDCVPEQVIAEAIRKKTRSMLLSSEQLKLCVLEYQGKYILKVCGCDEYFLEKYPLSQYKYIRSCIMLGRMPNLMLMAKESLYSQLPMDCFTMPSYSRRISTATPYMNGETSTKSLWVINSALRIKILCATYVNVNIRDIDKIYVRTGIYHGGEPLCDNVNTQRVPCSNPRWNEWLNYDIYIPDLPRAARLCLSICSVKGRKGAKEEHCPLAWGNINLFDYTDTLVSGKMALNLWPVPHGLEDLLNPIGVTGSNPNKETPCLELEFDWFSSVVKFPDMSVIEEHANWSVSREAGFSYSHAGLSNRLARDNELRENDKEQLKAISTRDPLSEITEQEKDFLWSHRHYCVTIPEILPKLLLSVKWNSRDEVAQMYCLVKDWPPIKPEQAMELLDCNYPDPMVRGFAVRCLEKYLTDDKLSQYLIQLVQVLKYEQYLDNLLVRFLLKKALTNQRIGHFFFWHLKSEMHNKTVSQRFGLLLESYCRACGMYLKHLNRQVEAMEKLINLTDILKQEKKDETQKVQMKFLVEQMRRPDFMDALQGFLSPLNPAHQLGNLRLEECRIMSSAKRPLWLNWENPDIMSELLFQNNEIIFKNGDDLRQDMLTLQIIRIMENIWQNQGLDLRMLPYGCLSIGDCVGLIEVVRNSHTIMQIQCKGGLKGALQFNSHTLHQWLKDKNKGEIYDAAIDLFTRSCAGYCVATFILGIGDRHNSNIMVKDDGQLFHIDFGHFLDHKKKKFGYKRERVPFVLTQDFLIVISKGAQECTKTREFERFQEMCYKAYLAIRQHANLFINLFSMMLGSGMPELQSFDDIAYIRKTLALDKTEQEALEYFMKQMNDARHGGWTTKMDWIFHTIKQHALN
H1047R PIK3CA enzyme, sequence (P27986 whole entry partner): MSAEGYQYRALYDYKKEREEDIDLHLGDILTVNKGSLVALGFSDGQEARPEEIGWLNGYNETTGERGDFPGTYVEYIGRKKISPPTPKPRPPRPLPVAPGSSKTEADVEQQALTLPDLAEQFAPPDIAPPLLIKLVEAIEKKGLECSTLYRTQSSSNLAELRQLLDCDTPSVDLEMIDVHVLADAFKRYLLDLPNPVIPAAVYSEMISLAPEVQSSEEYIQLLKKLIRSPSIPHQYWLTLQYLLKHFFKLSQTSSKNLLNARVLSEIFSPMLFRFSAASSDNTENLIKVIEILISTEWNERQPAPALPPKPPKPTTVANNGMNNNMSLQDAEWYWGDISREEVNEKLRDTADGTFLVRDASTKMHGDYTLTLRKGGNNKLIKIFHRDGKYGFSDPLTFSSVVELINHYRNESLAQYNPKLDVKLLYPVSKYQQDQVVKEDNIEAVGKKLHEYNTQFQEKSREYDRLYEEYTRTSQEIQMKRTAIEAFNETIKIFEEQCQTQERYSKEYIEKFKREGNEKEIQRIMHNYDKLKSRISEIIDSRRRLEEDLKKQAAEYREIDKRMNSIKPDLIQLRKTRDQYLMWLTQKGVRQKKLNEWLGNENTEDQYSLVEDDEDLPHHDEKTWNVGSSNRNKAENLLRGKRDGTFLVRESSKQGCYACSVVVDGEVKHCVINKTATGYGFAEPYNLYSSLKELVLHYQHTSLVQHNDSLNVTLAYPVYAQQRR

| Structure (SMILES) | IC50 |
| --- | --- |
| O=C(Nc1cc(N2CC(F)(F)C2)nc2c1C(c1cc(F)ccc1Cl)NC2=O)c1cc(F)cc(C(F)(F)F)c1 (stereo not drawn) [Compound I-286, N-[5-(2-Chloro-5-fluorophenyl)-2-(3,3-difluoroazetidin-1-yl)-7-oxo-5H,6H,7H-pyrrolo[3,4-b]pyridin-4-yl]-3-fluoro-5-(trifluoromethyl)benzamide] | ≤ 100 nM |
| Cc1ccccc1C1NC(=O)c2cncc(NC(=O)c3cc(F)cc(C(F)(F)F)c3)c21 (stereo not drawn) [Compound I-233] | 100 to 500 nM |
| C[C@@]1(O)CN(C(=O)Nc2cccc3c2[C@@H](c2cc(F)ccc2Cl)NC3=O)c2ccccc21 (single isomer, unassigned) [Compound I-2204] | 1000 to 10000 nM |
| O=C1N[C@H](c2cc(F)ccc2Cl)c2c(NC(=O)N3CCC[C@](O)(C(F)(F)F)C3)cccc21 (single isomer, unassigned) [Compound I-2114] | 10000 to 100000 nM |
| O=C1NC(c2cc(F)ccc2Cl)c2c(NC(=O)c3cncc4ccccc34)cc(Br)cc21 (stereo not drawn) [Compound I-673] | 1000 to 10000 nM |
| O=C(Nc1cc(Oc2ccccn2)cc2c1C(c1cc(F)ccc1Cl)NC2=O)c1cc(F)cc(C(F)(F)F)c1 (stereo not drawn) [Compound I-1077] | 100 to 500 nM |
| O=C(Nc1cc(C2CN(C3COC3)C2)cc2c1C(c1cc(F)ccc1Cl)NC2=O)c1cc(F)cc(C(F)(F)F)c1 (stereo not drawn) [Compound I-1280] | ≤ 100 nM |
| Cc1ccccc1C1NC(=O)c2cccc(NC(=O)c3nsc4ccc(C#N)cc34)c21 (stereo not drawn) [Compound I-377] | 1000 to 10000 nM |
| O=C1N[C@H](c2cc(F)ccc2Cl)c2c(NC(=O)N3C[C@H](O)c4c(F)cccc43)cccc21 (single isomer, unassigned) [Compound I-2143] | 500 to 1000 nM |
| O=C(CC1CCCCC1)Nc1cc(-c2ccc3ncnn3c2)cc2c1C(c1cc(F)ccc1Cl)NC2=O (stereo not drawn) [Compound I-1627] | 1000 to 10000 nM |
| O=C(Nc1cccc2c1[C@H]([C@@H]1CCCCCN1)NC2=O)c1cc(F)cc(C(F)(F)F)c1 (single isomer, unassigned) [Compound I-2319] | 10000 to 100000 nM |
| CCC[C@@]1(O)CN(C(=O)Nc2cccc3c2[C@H](c2cc(F)ccc2Cl)NC3=O)c2ccc(F)cc21 (single isomer, unassigned) [Compound I-2459] | 1000 to 10000 nM |
| O=C(Nc1ccc(F)cc1C(F)(F)F)Nc1cc(Br)cc2c1C(c1cc(F)ccc1Cl)NC2=O (stereo not drawn) [Compound I-1050] | 100 to 500 nM |
| Nc1nccc(-c2cc(NC(=O)c3cc(F)cc(C(F)(F)F)c3)c3c(c2)C(=O)NC3c2cc(F)ccc2Cl)n1 (stereo not drawn) [Compound I-1090] | ≤ 100 nM |
| Cc1ccccc1C1NS(=O)(=O)c2cccc(NC(=O)c3cc(F)cc(C(F)(F)F)c3)c21 (stereo not drawn) [Compound I-535] | 1000 to 10000 nM |
| O=C(Nc1cc(OC2CCOC2)cc2c1C(c1cc(F)ccc1Cl)NC2=O)c1cc(F)cc(C(F)(F)F)c1 (stereo not drawn) [Compound I-1184] | ≤ 100 nM |
| O=C(Nc1cc(NC2CC(F)(F)C2)nc2c1C(c1cc(F)ccc1Cl)NC2=O)c1cc(F)cc(C(F)(F)F)c1 (stereo not drawn) [Compound I-284] | ≤ 100 nM |
| Cc1ccccc1C1NC(=O)c2cccc(NC(=O)c3ncn4ccc(Cl)cc34)c21 (stereo not drawn) [Compound I-258, 7-chloro-N-[3-(2-methylphenyl)-1-oxo-2,3-dihydro-1H-isoindol-4-yl]imidazo[1,5-a]pyridine-1-carboxamide] | 1000 to 10000 nM |
| CC(=O)c1cc(NC(=O)c2nsc3ccccc23)c2c(c1)C(=O)NC2c1cc(F)ccc1Cl (stereo not drawn) [Compound I-135] | 500 to 1000 nM |
| N#Cc1cnn(-c2cc(NC(=O)N3CC(O)c4cc(F)ccc43)c3c(c2)C(=O)NC3c2cc(F)ccc2Cl)c1 (stereo not drawn) [Compound I-2404] | 100 to 500 nM |
| O=C1N[C@@H](c2cc(F)ccc2Cl)c2c(NC(=O)N3CC4(CC4)c4cc(F)ccc43)cc(Br)cc21 (stereo in doubt) [Compound I-1509] | ≤ 100 nM |
| O=C1N[C@H](c2cc(F)ccc2Cl)c2c(NC(=O)N3C[C@H](O)c4cc(F)ccc43)cc(-n3ccccc3=O)cc21 (single isomer, unassigned) [Compound I-2353] | 1000 to 10000 nM |
| N#Cc1cncn1Cc1cc(NC(=O)c2cc(F)cc(C(F)(F)F)c2)c2c(c1)C(=O)N[C@H]2c1cc(F)ccc1Cl (stereo in doubt) [Compound I-1748] | ≤ 100 nM |
| O=C1NC(c2ccccc2Cl)c2c(NC(=O)c3nsc4ccccc34)cc(Cl)nc21 (stereo not drawn) [Compound I-93, N-[2-Chloro-5-(2-chlorophenyl)-7-oxo-5H,6H,7H-pyrrolo[3,4-b]pyridin-4-yl]-1,2-benzothiazole-3-carboxamide] | ≤ 100 nM |
| O=C(Nc1cc(-c2ccc3nnc(C(F)F)n3c2)cc2c1[C@@H](c1cc(F)ccc1Cl)NC2=O)c1cc(F)cc(C(F)(F)F)c1 [Compound I-1924] | 1000 to 10000 nM |
| O=C1NC(c2cc(F)ccc2Cl)c2c(NC(=O)C3(C(F)(F)F)CC3)cc(Br)cc21 (stereo not drawn) [Compound I-1204] | 10000 to 100000 nM |
| O=C1N[C@@H](c2cc(F)ccc2Cl)c2c(NC(=O)N3C[C@H](C(F)F)c4ccccc43)cccc21 (single isomer, unassigned) [Compound I-2332] | 1000 to 10000 nM |
| CC(C)(O)COc1cc(NC(=O)c2cc(F)cc(C(F)(F)F)c2)c2c(c1)C(=O)NC2c1cc(F)ccc1Cl (stereo not drawn) [Compound I-709] | ≤ 100 nM |
| O=C(Nc1cc(NCC(F)F)cc2c1C(c1cc(F)ccc1Cl)NC2=O)c1cc(F)cc(C(F)(F)F)c1 (stereo not drawn) [Compound I-275] | ≤ 100 nM |
| CN1CC(COc2cc(NC(=O)c3cc(F)cc(C(F)(F)F)c3)c3c(c2)C(=O)NC3c2cc(F)ccc2Cl)CC1=O (mixture of isomers) [Compound I-1348] | ≤ 100 nM |

More lines, now with the values ahead:

| IC50 | Structure (SMILES) |
| --- | --- |
| ≤ 100 nM | CN(C)c1ncc(-c2cc(NC(=O)c3cc(F)cc(C(F)(F)F)c3)c3c(c2)C(=O)NC3c2cc(F)ccc2Cl)cn1 (stereo not drawn) [Compound I-1222] |
| 10000 to 100000 nM | O=C(Nc1cccc2c1C(=O)NS2(=O)=O)c1cc(F)cc(C(F)(F)F)c1 [Compound I-472] |
| 1000 to 10000 nM | O=C1NC(c2cc(F)ccc2Cl)c2c(Nc3cccc(=O)[nH]3)cc(Br)cc21 (stereo not drawn) [Compound I-1974] |
| 1000 to 10000 nM | CC(C#N)c1cc(NC(=O)c2cc(F)cc(C(F)(F)F)c2)c2c(c1)C(=O)N[C@@H]2c1cc(F)ccc1Cl (stereo partly drawn) [Compound I-2289] |
| 1000 to 10000 nM | O=C1NC(c2cc(F)ccc2Cl)c2c(Nc3nccc4ccccc34)cc(Br)cc21 (stereo not drawn) [Compound I-762] |
| ≤ 100 nM | O=C(Nc1cc(-c2ccc3nc(C(F)F)cn3c2)cc2c1[C@H](c1cc(F)ccc1Cl)NC2=O)c1cc(F)cc(C(F)(F)F)c1 [Compound I-1929] |
| ≤ 100 nM | O=C1N[C@@H](c2cc(F)ccc2Cl)c2c(NC(=O)c3nsc4ccccc34)cc(-c3ccc4ncnn4c3)cc21 (stereo in doubt) [Compound I-1829] |
| ≤ 100 nM | O=C(Nc1cc(-c2ccnc(C(=O)O)c2)cc2c1C(c1cc(F)ccc1Cl)NC2=O)c1cc(F)cc(C(F)(F)F)c1 (stereo not drawn) [Compound I-2137] |
| 10000 to 100000 nM | O=C1NC(c2cc(F)ccc2Cl)c2c(Nc3cc4ccccc4cn3)cc(Br)cc21 (stereo not drawn) [Compound I-1683] |
| ≤ 100 nM | O=C(Nc1cc(Cl)cc2c1C(c1cc(F)ccc1Cl)NC2=O)c1cc(F)cc(C(F)(F)F)c1 (stereo not drawn) [Compound I-688] |
| 1000 to 10000 nM | O=C(Nc1cc(-c2ccc(C(F)F)nc2)cc2c1[C@@H](c1cc(F)ccc1Cl)NC2=O)c1cc(F)cc(C(F)(F)F)c1 [Compound I-2004] |
| 10000 to 100000 nM | O=C1NC(c2cc(F)ccc2Cl)c2c(NC(=O)C3CC(O)C3)cc(-c3ccc4ncnn4c3)cc21 (stereo not drawn) [Compound I-1664] |
| 100 to 500 nM | CC(F)c1cc(F)cc(C(=O)Nc2cc(Br)cc3c2C(c2cc(F)ccc2Cl)NC3=O)c1 (stereo not drawn) [Compound I-1288] |
| 500 to 1000 nM | O=C(Nc1cc(Br)cc2c1C(c1cc(F)ccc1Cl)NC2=O)c1cccc(OC(F)(F)F)c1 (stereo not drawn) [Compound I-514] |
| ≤ 100 nM | O=C(Nc1cc(CS(=O)(=O)c2ncccn2)cc2c1C(c1cc(F)ccc1Cl)NC2=O)c1cc(F)cc(C(F)(F)F)c1 (stereo not drawn) [Compound I-1570] |
| ≤ 100 nM | O=C(Nc1cc(Br)cc2c1[C@H](c1cccc(F)c1Cl)NC2=O)c1cc(F)cc(C(F)(F)F)c1 [Compound I-669] |
| ≤ 100 nM | O=C(Nc1cc(NC(=O)C2CS(=O)(=O)C2)cc2c1C(c1cc(F)ccc1Cl)NC2=O)c1cc(F)cc(C(F)(F)F)c1 (stereo not drawn) [Compound I-351] |
| 100 to 500 nM | O=C(Nc1cc(-c2ccc3ncnn3c2)cc2c1C(c1cc(F)ccc1Cl)N(CO)C2=O)c1cc(F)cc(C(F)(F)F)c1 (stereo not drawn) [Compound I-1342] |
| ≤ 100 nM | N#Cc1cc2ncnn2cc1-c1cc(NC(=O)c2cc(F)cc(C(F)(F)F)c2)c2c(c1)C(=O)NC2c1cc(F)ccc1Cl (stereo not drawn) [Compound I-1539] |
| ≤ 100 nM | N#Cc1cccnc1-c1cc(NC(=O)c2cc(F)cc(C(F)(F)F)c2)c2c(c1)C(=O)NC2c1cc(F)ccc1Cl (stereo not drawn) [Compound I-1408] |
| 100 to 500 nM | O=C1NC(c2cc(F)ccc2Cl)c2c1cccc2-c1nc2c(C(F)(F)F)cc(F)cc2[nH]1 (stereo not drawn) [Compound I-842] |
| ≤ 100 nM | O=C(Nc1cc(OC[C@H]2CCO2)cc2c1[C@H](c1cc(F)ccc1Cl)NC2=O)c1cc(F)cc(C(F)(F)F)c1 (single isomer, unassigned) [Compound I-1518] |
| 100 to 500 nM | O=C(Nc1cc(Br)cc2c1[C@H](c1cccc(F)c1F)NC2=O)c1cc(F)cc(C(F)(F)F)c1 [Compound I-682] |
| 1000 to 10000 nM | O=C1N[C@H](c2cc(F)ccc2Cl)c2c(NC(=O)N3C[C@H](O)c4cc(F)ccc43)cc(Cl)cc21 (single isomer, unassigned) [Compound I-2399] |
| ≤ 100 nM | O=C(Nc1cc(-c2cnc(-c3ncco3)nc2)cc2c1C(c1cc(F)ccc1Cl)NC2=O)c1cc(F)cc(C(F)(F)F)c1 (stereo not drawn) [Compound I-1464] |
| ≤ 100 nM | O=C(Nc1cc(CC(O)CCO)cc2c1C(c1cc(F)ccc1Cl)NC2=O)c1cc(F)cc(C(F)(F)F)c1 (stereo not drawn) [Compound I-1463] |
| 100 to 500 nM | O=C(Nc1cccc2c1C(c1ccccc1Br)NC2=O)c1cc(F)cc(C(F)(F)F)c1 (stereo not drawn) [Compound I-325] |
